Results taken from ChEMBL document CHEMBL3046156, “Neoclerodane diterpenoids from Teucrium polium subsp. polium and their antifeedant activity” (2003).

Key:
[1] = tested on: Spodoptera littoralis; assay: Antifeedant activity against Spodoptera littoralis assessed as antifeedant index at 100 ppm by binary choice bioassay; assay type: functional
[2] = tested on: Spodoptera littoralis; assay: Antifeedant activity against Spodoptera littoralis by binary choice bioassay; assay type: functional

Structure (SMILES) | AFI [1] | FI50 [2]
CC(=O)OC[C@@]12C(=O)[C@@H](OC(C)=O)[C@@H](C)[C@]3(C[C@@H](c4ccoc4)OC3=O)[C@H]1CCC[C@]21CO1 [CAPITATIN] | 31% | –
CC(=O)OC[C@@]12C(=O)[C@H]3OC(=O)[C@@](C[C@H](OC(C)=O)c4ccoc4)(C1CCC[C@]21CO1)[C@@H]3C (stereo partly specified) | 6.9% | 230 ppm
CC(=O)OC[C@@]12C(=O)[C@H]3O[C@H](O)[C@](C[C@H](OC(C)=O)c4ccoc4)([C@@H]3C)[C@H]1CCC[C@]21CO1 [AUROPOLIN] | 17.8% | –
CC(=O)OC[C@@]12C(=O)[C@H]3O[C@H](OC(C)=O)[C@](C[C@H](OC(C)=O)c4ccoc4)([C@@H]3C)[C@H]1CCC[C@]21CO1 [ACETYL-AUROPOLIN] | 57.8% | 90 ppm
